Values after ≈ are worked out from the molar mass of the structure shown. Bridge positions count the residues as written; N and C are the ends. Square brackets hold non-standard residues; d marks the D form. Peptide text beside a SMILES is read from it. * marks the point of attachment. ξ: configuration not given here. Octanoyl(6-Me) = CCC(C)CCCCC(=O)*; ξGly(octyl) = CCCCCCCCC(N)C(=O)O; dDab = NCC[C@@H](N)C(=O)O; Octanoyl = CCCCCCCC(=O)*; Dab = NCC[C@H](N)C(=O)O
Assays:
[1] = tested on: P. aeruginosa FADDI-PA070, PmxR; conditions: MIC P. aeruginosa FADDI-PA070, PmxR (µg/mL)
[2] = tested on: K. pneumoniae CI Koprana 100650661:1, PmxR; conditions: MIC K. pneumoniae CI Koprana 100650661:1, PmxR (µg/mL)
[3] = tested on: K. pneumoniae ATCC 700603, MDR; conditions: MIC K. pneumoniae ATCC 700603, MDR(µg/mL)
[4] = tested on: E. coli ATCC 25922; conditions: MIC E. coli ATCC 25922 (µg/mL)
[5] = tested on: A. baumannii CI Ptyela 100734512:2, PmxR; conditions: MIC A. baumannii CI Ptyela 100734512:2, PmxR (µg/mL)
[6] = tested on: K. pneumoniae ATTC BAA-2146, NDM-1 pos; conditions: MIC K. pneumoniae ATTC BAA-2146, NDM-1 pos (µg/mL)
[7] = tested on: S. aureus ATCC 25923, MSSA; conditions: MIC S. aureus ATCC 25923, MSSA (µg/mL)
[8] = tested on: A. baumannii ATCC 19606; conditions: MIC A. baumannii ATCC 19606 (µg/mL)
[9] = tested on: P. aeruginosa ATCC 27853; conditions: MIC P. aeruginosa ATCC 27853 (µg/mL)
[10] = tested on: P. aeruginosa PA9704, PmxR; conditions: MIC P. aeruginosa PA9704, PmxR (µg/mL)
[11] = tested on: K. pneumoniae ATCC 13883; conditions: MIC K. pneumoniae ATCC 13883 (µg/mL)
[12] = tested on: K. pneumoniae CI 138-16357-20362, PmxR; conditions: MIC K. pneumoniae CI 138-16357-20362, PmxR (µg/mL)
[13] = tested on: HepG2; conditions: CC50 HepG2 (µM)
[14] = tested on: P. aeruginosa FADDI-PA070, PmxR; type: cell-based, Pseudomonas aeruginosa; conditions: polymyxin resistant clinical isolate; MHB, 5 × 10^5 CFU/mL, 18 h at 37 °C
Method: (§1) Bacteria were either obtained from American Type Culture Collection (ATCC; Manassas, VA, USA) or independent academic clinical isolate collections, as listed in Table S2. Bacteria were cultured in nutrient broth (NB; Bacto Laboratories, catalog no. 234000) or Muller Hinton broth (MHB; Bacto Laboratories, catalog no. 211443) at 37 °C overnight with shaking (∼180 rpm). A sample of each culture was then diluted 50-fold in fresh MHB and incubated at 37 °C for 1.5–3 h with shaking (∼180 rpm). Compound stock solutions were prepared as 0.64 or 2.56 mg/mL in water. The compounds, at twice the final desired concentration, were serially diluted 2-fold across the wells of 96-well plates (Polystyrene, Corning, catalogue No. 3370). Mid log phase bacterial cultures (after 1.5–3 h incubation) were diluted to a final concentration of 5 × 10^5 colony forming units (CFU)/mL, and 50 μL was added to each well giving a final compound concentration range of 32 μg/mL to 0.015 μg/mL (128–0.06 μg/mL for colistin and polymyxin B against the polymyxin resistant clinical isolates). MICs were determined visually after 18 h of incubation at 37 °C, with the MIC defined as the lowest compound concentration at which no bacterial growth was visible.
(§2) Table S2. Bacterial strains used for Minimum Inhibitory Concentration (MIC) […]
(§3) Organism Strain Strain description Strain Source
(§4) Escherichia coli ATCC 25922 FDA strain Seattle 1946 ATCC
(§5) Klebsiella pneumoniae ATCC 13883 Control strain ATCC
(§6) Klebsiella pneumoniae ATCC 700603 Multi-drug resistant ATCC
(§7) Klebsiella pneumoniae BAA-2146 Metallo-beta-lactamase- ATCC
(§8) Acinetobacter baumannii ATCC 19606 Type strain ATCC
(§9) Pseudomonas aeruginosa ATCC 27853 Type strain ATCC
(§10) Pseudomonas aeruginosa FADDI-PA070 Clinical isolate, Nation and Li labs, polymyxin resistant Monash University
(§11) Clinical isolate, Wang Hengzhuang, Pseudomonas aeruginosa PA9704 polymyxin resistant University Hospital of […]
(§12) Ptyela Clinical isolate, Ilias Karaiskos and Acinetobacter baumannii Carbapenem & Helen Giamarellou
(§13) Clinical isolate, Medicine, Hygeia
(§14) Klebsiella pneumoniae Koprana Carbapenem, & General Hospital, […]
(§15) Clinical isolate, (Instituto Dante […]
(§16) polymyxin resistant Cardiologia, São […]

[15] = tested on: P. aeruginosa PA9704, PmxR; type: cell-based, Pseudomonas aeruginosa; conditions: polymyxin resistant clinical isolate; MHB, 5 × 10^5 CFU/mL, 18 h at 37 °C
Method: as §1, §2, §3, §4, §5, §6, §7, §8, §9, §10, §11, §12, §13, §14, §15, §16

[16] = tested on: A. baumannii ATCC 19606; type: cell-based, Acinetobacter baumannii; conditions: ATCC 19606, 18 h
Method: as §1, §2, §3, §4, §5, §6, §7, §8, §9, §10, §11, §12, §13, §14, §15, §16

[17] = tested on: K. pneumoniae CI Koprana 100650661:1, PmxR; assay: microbe, parasite or virus in culture; type: cell-based, Klebsiella pneumoniae; conditions: carbapenem & polymyxin resistant clinical isolate; MHB, 5 × 10^5 CFU/mL, 18 h at 37 °C
[18] = tested on: K. pneumoniae ATCC 13883; assay: microbe, parasite or virus in culture; type: cell-based, Klebsiella pneumoniae; conditions: ATCC 13883, 18 h
[19] = tested on: K. pneumoniae CI 138-16357-20362, PmxR; assay: microbe, parasite or virus in culture; type: cell-based, Klebsiella pneumoniae; conditions: carbapenem & polymyxin resistant clinical isolate; MHB, 5 × 10^5 CFU/mL, 18 h at 37 °C
[20] = tested on: A. baumannii CI Ptyela 100734512:2, PmxR; assay: microbe, parasite or virus in culture; type: cell-based, Acinetobacter baumannii; conditions: carbapenem & polymyxin resistant clinical isolate; MHB, 5 × 10^5 CFU/mL, 18 h at 37 °C
Method: as §1, §2, §3, §4, §5, §6, §7, §8, §9, §10, §11, §12, §13, §14, §15, §16

[21] = tested on: HepG2 cells; assay: Cytotoxicity assay (resazurin assay); type: cell-based, human; conditions: 4000 cells/well, 24 h incubation with compound, fluorescence 560/590
Method: Cytotoxicity to HEK293 and HepG2 cells was determined using the resazurin assay.[67],[68] […] Compounds were then added into each well. After 24 h incubation, 5 μM resazurin was added per well and incubated at 37 °C for 2 h. Fluorescence intensity was then read using a Polarstar Omega with excitation/emission 560/590. The data were then analyzed using GraphPad Prism 6 software. CC50 values were determined using GraphPad Prism 6 software (Inc. La Jolla, CA).

[22] = tested on: E. coli ATCC 25922; assay: microbe, parasite or virus in culture; type: cell-based, Escherichia coli; conditions: ATCC 25922, 18 h
Method: as §1, §2, §3, §4, §5, §6, §7, §8, §9, §10, §11, §12, §13, §14, §15, §16

[23] = tested on: S. aureus ATCC 25923, MSSA; assay: microbe, parasite or virus in culture; type: cell-based, Staphylococcus aureus; conditions: ATCC 25923, 18 h
Method: as §1, §2, §3, §4, §5, §6, §7, §8, §9, §10, §11, §12, §13, §14, §15, §16

MIC [1] [µg/mL]	MIC [2] [µg/mL]	MIC [3] [µg/mL]	MIC [4] [µg/mL]	MIC [5] [µg/mL]	MIC [6] [µg/mL]	MIC [7] [µg/mL]	MIC [8] [µg/mL]	MIC [9] [µg/mL]	MIC [10] [µg/mL]	MIC [11] [µg/mL]	MIC [12] [µg/mL]	SMILES	CC50 [13] [µM]	MIC A. baumannii ATCC 19606 [16]	also measured
> 32	> 128	0.25 (≈ 0.214 µM)	0.25 (≈ 0.214 µM)	> 64	0.25 (≈ 0.214 µM)	> 128	0.25 (≈ 0.214 µM)	0.5 (≈ 0.428 µM)	128 (≈ 109 µM)	0.25 (≈ 0.214 µM)	64 (≈ 54.7 µM)	CCC(C)CCCCC(=O)N[C@@H](CCN)C(=O)N[C@H](C(=O)N[C@@H](CCN)C(=O)N[C@H]1CCNC(=O)[C@H]([C@@H](C)O)NC(=O)[C@H](CCN)NC(=O)[C@H](CCN)NC(=O)[C@H](CC(C)C)NC(=O)[C@@H](CC(C)C)NC(=O)[C@H](CCN)NC1=O)[C@@H](C)O (stereo partly drawn) ({Octanoyl(6-Me)}-[Dab]T[Dab][Dab][Dab][dL]L[Dab][Dab]T; lactam 4-C)	> 300	–	–
32 (≈ 26.6 µM)	64 (≈ 53.2 µM)	0.5 (≈ 0.415 µM)	1 (≈ 0.831 µM)	64 (≈ 53.2 µM)	0.25 (≈ 0.208 µM)	> 64	0.25 (≈ 0.208 µM)	0.5 (≈ 0.415 µM)	128 (≈ 106 µM)	1 (≈ 0.831 µM)	64 (≈ 53.2 µM)	CCC(C)CCCCC(=O)N[C@@H](CCN)C(=O)N[C@H](C(=O)N[C@@H](CCN)C(=O)N[C@H]1CCNC(=O)[C@H]([C@@H](C)O)NC(=O)[C@H](CCN)NC(=O)[C@H](CCN)NC(=O)[C@H](CC(C)C)NC(=O)[C@@H](Cc2ccccc2)NC(=O)[C@H](CCN)NC1=O)[C@@H](C)O (some centres unmarked)	> 300	–	–
–	–	–	–	–	–	–	–	–	–	–	–	CCCCCCCCC1NC(=O)[C@@H](Cc2ccccc2)NC(=O)[C@H](CCN)NC(=O)[C@@H](NC(=O)[C@H](CCN)NC(=O)[C@@H](NC(=O)[C@H](CCN)NC(=O)CCCCCCC)[C@@H](C)O)CCNC(=O)[C@H]([C@@H](C)O)NC(=O)[C@H](CCN)NC(=O)[C@H](CCN)NC1=O (some centres unmarked) [Compound 28] (Octanoyl-[Dab]T[Dab][Dab][Dab][dF][ξGly(octyl)][Dab][Dab]T; lactam 4-C)	–	1(1) μg/mL	–

SMILES	MIC [1] [µg/mL]	MIC [2] [µg/mL]	MIC [3] [µg/mL]	MIC [4] [µg/mL]	MIC [5] [µg/mL]	MIC [6] [µg/mL]	MIC [7] [µg/mL]	MIC [8] [µg/mL]	MIC [9] [µg/mL]	MIC [10] [µg/mL]	MIC [11] [µg/mL]	MIC [12] [µg/mL]	CC50 [13] [µM]	MIC A. baumannii ATCC 19606 [16]	also measured
CCCCCCCC(=O)N[C@H](CCN)C(=O)N[C@H](C(=O)NCC(=O)N[C@H]1CCNC(=O)[C@H]([C@@H](C)O)NC(=O)[C@H](CCN)NC(=O)[C@H](CCN)NC(=O)[C@H](CC(C)C)NC(=O)[C@@H](Cc2ccccc2)NC(=O)[C@H](CCN)NC1=O)[C@@H](C)O [Compound 40] (Octanoyl-[dDab]TG[Dab][Dab][dF]L[Dab][Dab]T; lactam 4-C)	> 32	> 32	–	> 32	> 32	–	> 64	> 64	–	> 32	> 32	> 32	> 300	>64 µg/mL	MIC P. aeruginosa FADDI-PA070, PmxR [14]: >32 µg/mL; MIC P. aeruginosa PA9704, PmxR [15]: >32 µg/mL; MIC K. pneumoniae CI Koprana 100650661:1, PmxR [17]: >32 µg/mL; MIC K. pneumoniae ATCC 13883 [18]: >32 µg/mL; MIC K. pneumoniae CI 138-16357-20362, PmxR [19]: >32 µg/mL; MIC A. baumannii CI Ptyela 100734512:2, PmxR [20]: >32 µg/mL; HepG2 - CC50 [21]: >300 µM; MIC E. coli ATCC 25922 [22]: >32 µg/mL; MIC S. aureus ATCC 25923, MSSA [23]: >64 µg/mL

Reference: publication PMC4774972, “Activity and Predicted Nephrotoxicity of Synthetic Antibiotics Based on Polymyxin B” (Journal of Medicinal Chemistry, 2016)
